Results as given in ChEMBL document CHEMBL3621174, “Synthesis and evaluation of new tyrosyl-tRNA synthetase inhibitors as antibacterial agents based on a N2-(arylacetyl)glycinanilide scaffold” (Eur J Med Chem, 2015).
Values after ≈ are worked out from the molar mass of the structure shown.

Tests used:
Pseudomonas aeruginosa [1] = experiment: Antibacterial activity against Pseudomonas aeruginosa ATCC 9027 after 24 hr by MTT assay; format: functional; settings: ATCC 9027, 24 h
Staphylococcus aureus [2] = experiment: Antibacterial activity against Staphylococcus aureus ATCC 6538 after 24 hr by MTT assay; format: functional; settings: ATCC 6538, 24 h
Escherichia coli [3] = experiment: Antibacterial activity against Escherichia coli ATCC 35218 after 24 hr by MTT assay; format: functional; settings: ATCC 35218, 24 h
Staphylococcus aureus [4] = experiment: Antibacterial activity against Staphylococcus aureus ATCC 25923 after 24 hr by MTT assay; format: functional; settings: ATCC 25923, 24 h
Escherichia coli [5] = experiment: Antibacterial activity against Escherichia coli ATCC 8739 after 24 hr by MTT assay; format: functional; settings: ATCC 8739, 24 h
[6] = Inhibition of Staphylococcus aureus Tyrosyl-tRNA synthetase using L-[ring-3,5-3H] tyrosine as substrate after 10 min by liquid scintillation assay
Staphylococcus aureus [7] = experiment: Potency index, ratio of penicillin G MIC to compound MIC for Staphylococcus aureus ATCC 6538; format: functional
Pseudomonas aeruginosa [8] = experiment: Potency index, ratio of penicillin G MIC to compound MIC for Pseudomonas aeruginosa ATCC 9027; format: functional

SMILES | MIC (Pseudomonas aeruginosa [1]) [µM] | MIC (Staphylococcus aureus [2]) [µM] | MIC (Escherichia coli [3]) [µM] | MIC (Staphylococcus aureus [4]) [µM] | MIC (Escherichia coli [5]) [µM] | IC50 [6] [µM] | MIC50 (Pseudomonas aeruginosa [1]) [µM] | MIC50 (Staphylococcus aureus [2]) [µM] | Ratio (Staphylococcus aureus [7]) | Ratio (Pseudomonas aeruginosa [8])
Cc1ccc(NC(=O)CNC(=O)Cc2cccc(Cl)c2)cc1 | > 160 | 64.9 (≈ 20.6 µg/mL) | > 160 | 91.1 (≈ 28.9 µg/mL) | 155 (≈ 49.2 µg/mL) | 21.4 |  |  |  | 
O=C(Cc1ccccc1)NCC(=O)Nc1cccc(Cl)c1 | > 160 | > 160 | > 160 | > 160 | > 160 | 144 |  |  |  | 
COc1ccc(NC(=O)CNC(=O)Cc2ccccc2)cc1 | > 160 | > 160 | > 160 | > 160 | > 160 | 82 |  |  |  | 
COc1ccc(NC(=O)CNC(=O)Cc2ccc(O)cc2)cc1 | > 160 | > 160 | > 160 | > 160 | > 160 | 319 |  |  |  | 
COc1ccc(NC(=O)CNC(=O)Cc2ccc(F)cc2)cc1 | > 160 | > 160 | > 160 | > 160 | > 160 | 112 |  |  |  | 
O=C(Cc1ccccc1)NCC(=O)Nc1ccc(Cl)cc1 | > 160 | 49.7 (≈ 15 µg/mL) | 159 (≈ 48.1 µg/mL) | 69.2 (≈ 21 µg/mL) | 123 (≈ 37.3 µg/mL) | 16.6 |  |  |  | 
COc1ccc(NC(=O)CNC(=O)Cc2ccccc2)cc1OC | > 160 | > 160 | > 160 | > 160 | > 160 | 162 |  |  |  | 
COc1ccc(NC(=O)CNC(=O)Cc2cccc(F)c2)cc1 | > 160 | > 160 | > 160 | > 160 | > 160 | 92.7 |  |  |  | 
COc1ccc(NC(=O)CNC(=O)Cc2ccc(Cl)cc2)cc1 | > 160 | > 160 | > 160 | > 160 | > 160 | 70.1 |  |  |  | 
COc1ccc(NC(=O)CNC(=O)Cc2ccc(OC)c(OC)c2)cc1 | > 160 | > 160 | > 160 | > 160 | > 160 | 556 |  |  |  | 
O=C(Cc1ccccc1Cl)NCC(=O)Nc1ccc(Br)cc1 | > 160 | 69.7 (≈ 26.6 µg/mL) | > 160 | 103 (≈ 39.5 µg/mL) | > 160 | 77.8 |  |  |  | 
O=C(Cc1ccc(Cl)cc1)NCC(=O)Nc1cc(Cl)cc(Cl)c1 | > 160 | > 160 | > 160 | > 160 | > 160 | 254 |  |  |  | 
COc1ccc(CC(=O)NCC(=O)Nc2ccc([N+](=O)[O-])cc2)cc1OC | > 160 | > 160 | > 160 | > 160 | > 160 | 88.5 |  |  |  | 
O=C(Cc1ccccc1)NCC(=O)Nc1ccccc1 | > 160 | 52.7 (≈ 14.1 µg/mL) | > 160 | 73.5 (≈ 19.7 µg/mL) | 134 (≈ 35.9 µg/mL) | 19.3 |  |  |  | 
O=C(Cc1ccccc1)NCC(=O)Nc1cc(Cl)cc(Cl)c1 | > 160 | > 160 | > 160 | > 160 | > 160 | 133 |  |  |  | 
Cc1ccc(CC(=O)NCC(=O)Nc2ccc([N+](=O)[O-])cc2)cc1 | > 160 | 80.7 (≈ 26.4 µg/mL) | > 160 | 132 (≈ 43.2 µg/mL) | > 160 | 44.6 |  |  |  | 
O=C(Cc1cccc(Br)c1)NCC(=O)Nc1ccc(Br)cc1 | > 160 | 97.2 (≈ 41.4 µg/mL) | > 160 | > 160 | > 160 | 58.4 |  |  |  | 
COc1ccc(NC(=O)CNC(=O)Cc2ccccc2O)cc1 | > 160 | > 160 | > 160 | > 160 | > 160 | 478 |  |  |  | 
O=C(Cc1ccccc1)NCC(=O)Nc1ccc(Br)cc1 | > 160 | 113 (≈ 39.3 µg/mL) | > 160 | > 160 | > 160 | 50.6 |  |  |  | 
CC1(C)S[C@@H]2[C@H](NC(=O)Cc3ccccc3)C(=O)N2[C@H]1C(=O)O [PENICILLIN G] |  | 7.13 (≈ 2.38 µg/mL) |  | 9.28 (≈ 3.1 µg/mL) |  |  |  |  |  | 
COc1ccc(NC(=O)CNC(=O)Cc2cccc(Cl)c2)cc1 | > 160 | 148 (≈ 49.3 µg/mL) | > 160 | 148 (≈ 49.3 µg/mL) | > 160 | 66.5 |  |  |  | 

Continued, in another order:

MIC (Pseudomonas aeruginosa [1]) [µM] | MIC (Staphylococcus aureus [2]) [µM] | MIC (Escherichia coli [3]) [µM] | MIC (Staphylococcus aureus [4]) [µM] | MIC (Escherichia coli [5]) [µM] | IC50 [6] [µM] | MIC50 (Pseudomonas aeruginosa [1]) [µM] | MIC50 (Staphylococcus aureus [2]) [µM] | SMILES | Ratio (Staphylococcus aureus [7]) | Ratio (Pseudomonas aeruginosa [8])
18.2 (≈ 6.03 µg/mL) | 3.14 (≈ 1.04 µg/mL) | 19.6 (≈ 6.49 µg/mL) | 4.11 (≈ 1.36 µg/mL) | 12.3 (≈ 4.08 µg/mL) | 1.14 |  |  | O=C(Cc1cccc(F)c1)NCC(=O)Nc1ccc([N+](=O)[O-])cc1 |  | 
> 160 | 103 (≈ 32.3 µg/mL) | > 160 | 156 (≈ 48.9 µg/mL) | > 160 | 47.8 |  |  | O=C(Cc1ccccc1)NCC(=O)Nc1cccc([N+](=O)[O-])c1 |  | 
> 160 | > 160 | > 160 | > 160 | > 160 | 205 |  |  | O=C(Cc1ccccc1)NCC(=O)Nc1ccccc1Cl |  | 
> 160 | > 160 | > 160 | > 160 | > 160 | 189 |  |  | COc1ccc(NC(=O)CNC(=O)Cc2ccccc2Cl)cc1 |  | 
72 (≈ 23.7 µg/mL) | 15.2 (≈ 5.01 µg/mL) | 89.4 (≈ 29.4 µg/mL) | 18.4 (≈ 6.06 µg/mL) | 47.1 (≈ 15.5 µg/mL) | 6.41 |  |  | O=C(Cc1cccc(O)c1)NCC(=O)Nc1ccc([N+](=O)[O-])cc1 |  | 
> 160 | > 160 | > 160 | > 160 | > 160 | 279 |  |  | COc1ccc(NC(=O)CNC(=O)Cc2cccc(O)c2)cc1 |  | 
148 (≈ 45.1 µg/mL) | 40.5 (≈ 12.3 µg/mL) | > 160 | 47.7 (≈ 14.5 µg/mL) | 120 (≈ 36.5 µg/mL) | 13.1 |  |  | O=C(Cc1ccccc1)NCC(=O)Nc1cc(F)cc(F)c1 |  | 
18.2 (≈ 5.7 µg/mL) | 2.81 (≈ 0.88 µg/mL) | 15.8 (≈ 4.95 µg/mL) | 3.67 (≈ 1.15 µg/mL) | 11.2 (≈ 3.51 µg/mL) | 0.87 |  |  | O=C(Cc1ccccc1)NCC(=O)Nc1ccc([N+](=O)[O-])cc1 |  | 
34 (≈ 11.8 µg/mL) | 6.51 (≈ 2.26 µg/mL) | 19.7 (≈ 6.85 µg/mL) | 8.41 (≈ 2.92 µg/mL) | 13.5 (≈ 4.69 µg/mL) | 2.52 |  |  | O=C(Cc1ccccc1Cl)NCC(=O)Nc1ccc([N+](=O)[O-])cc1 |  | 
7.16 (≈ 3.47 µg/mL) |  | 4.35 (≈ 2.11 µg/mL) |  | 1.26 (≈ 0.61 µg/mL) |  |  |  | NC[C@H]1O[C@H](O[C@H]2[C@H](O)[C@@H](O[C@H]3O[C@H](CO)[C@@H](O)[C@H](N)[C@H]3O)[C@H](N)C[C@@H]2N)[C@H](O)[C@@H](O)[C@@H]1O [KANAMYCIN] |  | 
96.1 (≈ 36.7 µg/mL) | 20.9 (≈ 7.98 µg/mL) | 83.4 (≈ 31.8 µg/mL) | 24.9 (≈ 9.5 µg/mL) | 62.4 (≈ 23.8 µg/mL) | 8.36 |  |  | O=C(Cc1cccc(Cl)c1)NCC(=O)Nc1ccc(Br)cc1 |  | 
10.1 (≈ 3.51 µg/mL) | 1.84 (≈ 0.64 µg/mL) | 9.5 (≈ 3.3 µg/mL) | 2.36 (≈ 0.821 µg/mL) | 6.8 (≈ 2.36 µg/mL) | 0.7 | 3.37 (≈ 1.17 µg/mL) | 0.52 (≈ 0.181 µg/mL) | O=C(Cc1cccc(Cl)c1)NCC(=O)Nc1ccc([N+](=O)[O-])cc1 | 3 | 3.9
65.6 (≈ 21.7 µg/mL) | 14.1 (≈ 4.67 µg/mL) | 75.8 (≈ 25.1 µg/mL) | 17 (≈ 5.63 µg/mL) | 42.3 (≈ 14 µg/mL) | 5.25 |  |  | O=C(Cc1ccc(F)cc1)NCC(=O)Nc1ccc([N+](=O)[O-])cc1 |  | 
134 (≈ 44.1 µg/mL) | 28.6 (≈ 9.42 µg/mL) | 144 (≈ 47.4 µg/mL) | 34.1 (≈ 11.2 µg/mL) | 86.9 (≈ 28.6 µg/mL) | 10.2 |  |  | O=C(Cc1ccc(O)cc1)NCC(=O)Nc1ccc([N+](=O)[O-])cc1 |  | 
